Reference: patent publication US7846434B2, “Materials and methods for improved immunoglycoproteins” (Trubion Pharmaceuticals, Inc., priority 2006, dated 2010)
Where “and” joins values, the source holds several entries; their conditions need not be identical. Equal entries are not always repeated.

Assays:
[1] = tested on: CHO-K1 cells transfected with TRU-016; assay: Effect of castanospermine on CHO-K1 TRU-016 production, shake flasks; format: cell-based, Chinese hamster; conditions: for Average TRU-016 Produced (μg/mL) ± SD: duplicate flasks; for Viability at Harvest (%): harvest day 10, listed as CS
Protocol: Prior to initiation of the experiments, CHO-K1 cells transfected with TRU-016 (CAS029f053) were grown in vented shake flasks in CD-CHO chemically-defined media (GIBCO-Invitrogen) supplemented with 25 uM methionine sulfoximine (MSX) at 37° C. and 5% carbon dioxide in a humidified incubator. Shaker speed was set at 125 RPM. A 400 mM stock concentration of castanospermine (Alexis Biochemicals) was prepared by dilution of the CS in sterile, distilled/deionized water (MediaTech) followed by filtration through a 13 mm Acrodisc® with a 0.2 μm HT Tuffryn membrane (Pall Corporation). Stock solution was aliquoted into sterile, O-ringed, 0.5 mL microcentrifuge tubes (Fisherbrand, Fisher Scientific) and frozen at −20° C. Approximately 1 hour prior to initiation of experiments, needed aliquots were thawed at room temperature and the contents of each vial mixed well by vortexing.
For the experiment, cells in log phase growth were seeded in the above medium into a volume of 60 mL in 250 mL shaker flasks at a density of 220,000 cells/mL and CS added at the concentration to be tested. Final CS concentrations of 800 μM, 400 μM, 200 μM, 100 μM, 50 μM, 25 μM and 0 μM were each tested in duplicate flasks. All shake flasks were incubated on a shaker platform set at 125 RPM at 37° C. and 5% carbon dioxide in a humidified incubator. Cultures were monitored at least every other day for viable cell density and overall cell viability.
Cultures were harvested on day 10 when overall cell viability was 49-62%. Cells and cellular debris were removed by centrifugation in a Sorvall Super T21 at 3000 rpm for 20 minutes after which the supernatant was sterile filtered through a Millipore Steriflip unit with a 0.22 μm Millipore Express Plus membrane and stored at 4° C. until purified.

[2] = tested on: DG44 CHO cells transfected with TRU-016; assay: Effect of castanospermine on DG44 CHO TRU-016 production, shake flasks; format: cell-based, Chinese hamster; conditions: for Average TRU-016 Produced (ug/mL) ± SD: duplicate flasks
Protocol: Prior to initiation of the experiments, DG44 CHO cells transfected with TRU-016 were grown in shake flasks in Ex-Cell™ 302 CHO serum-free media (SAFC Biosciences) supplemented with 1× non-essential amino acids (MediaTech), 1× sodium pyruvate (MediaTech), 4 mM L-glutamine (MediaTech), 500 nM methotrexate (MP Biomedicals) and 1 mg/L recombinant insulin (Recombulin-GIBCO/Invitrogen Corp.) at 37° C. and 5% carbon dioxide in a humidified incubator. A 200 mM stock concentration of castanospermine (Alexis Biochemicals) was prepared by dilution of the castanospermine in sterile, distilled/deionized water (MediaTech) and filtration through a 13 mm Acrodisc® with a 0.2 μm HT Tuffryn membrane (Pall Corporation). Stock solution was aliquoted into sterile, O-ringed, 0.5 mL microcentrifuge tubes (Fisherbrand, Fisher Scientific) and frozen at −20° C. Approximately 1 hour prior to initiation of experiments, needed aliquots were thawed at room temperature and the contents of each vial mixed well by vortexing.
For each experiment, cells in log phase growth were seeded in the above medium into a total volume of 60 mL in 250 mL shaker flasks at a density of 200,000 cells/mL and CS added at the concentration to be tested. Final CS concentrations of 800 μM, 400 μM, 200 μM, 100 μM, 50 μM, 25 μM and 0 μM were each tested in duplicate flasks. All cultures were incubated at 37° C. and 5% carbon dioxide in a humidified incubator and monitored at least every other day for viable cell density and overall cell viability.
Cultures were harvested on day 8 when overall cell viability was 50-70% (Expt. 1) and 30-50% (Expt. 2). Cells and cellular debris were removed by centrifugation in a Sorvall Super T21 at 3000 rpm for 20 minutes after which the supernatant was sterile filtered through a Millipore Steriflip unit with a 0.22 μm Millipore Express Plus membrane and stored at 2-8° C. until purification.

O[C@H]1[C@H](O)[C@@H](O)CN2CC[C@H](O)[C@H]12 [castanospermine]
CS concentration at which the maximal suppressive effect on TRU-016 production was reached ([1]; CHO-K1): 200 µM
Average ICA (10^6 cells * days/mL) ± SD ([1]; CS 25 μM): 40.8 ± 0.4 10^6 cells * days/mL
Average Specific Productivity (pg/cell/day) ± SD ([1]; CS 25 μM): 10.29 ± 0.18 pg/cell/day
Average TRU-016 Produced as a % of Control ± SD ([1]; CS 25 μM): 96.7 ± 2.6%
Average TRU-016 Produced (μg/mL) ± SD ([1]; CS 25 μM): 419.36 ± 11.1 µg/mL
Viability at Harvest (%) ([1]; CS 25 μM): 57.7% and 53.0%
Average ICA (10^6 cells * days/mL) ± SD ([1]; CS 50 μM): 41.6 ± 0.9 10^6 cells * days/mL
Average Specific Productivity (pg/cell/day) ± SD ([1]; CS 50 μM): 10.18 ± 0.45 pg/cell/day
Average TRU-016 Produced as a % of Control ± SD ([1]; CS 50 μM): 97.5 ± 6.4%
Average TRU-016 Produced (μg/mL) ± SD ([1]; CS 50 μM): 422.84 ± 27.8 µg/mL
Viability at Harvest (%) ([1]; CS 50 μM): 61.3%
Average ICA (10^6 cells * days/mL) ± SD ([1]; CS 100 μM): 39.0 ± 0.4 10^6 cells * days/mL
Average Specific Productivity (pg/cell/day) ± SD ([1]; CS 100 μM): 10.48 ± 0.07 pg/cell/day
Average TRU-016 Produced as a % of Control ± SD ([1]; CS 100 μM): 94.3 ± 1.6%
Average TRU-016 Produced (μg/mL) ± SD ([1]; CS 100 μM): 408.60 ± 6.9 µg/mL
Viability at Harvest (%) ([1]; CS 100 μM): 61.2% and 55.1%
Average ICA (10^6 cells * days/mL) ± SD ([1]; CS 200 μM): 40.1 ± 2.3 10^6 cells * days/mL
Average Specific Productivity (pg/cell/day) ± SD ([1]; CS 200 μM): 10.04 ± 0.69 pg/cell/day
Average TRU-016 Produced as a % of Control ± SD ([1]; CS 200 μM): 92.7 ± 1.2%
Average TRU-016 Produced (μg/mL) ± SD ([1]; CS 200 μM): 401.93 ± 5.0 µg/mL
Viability at Harvest (%) ([1]; CS 200 μM): 61.8% and 56.4%
Average ICA (10^6 cells * days/mL) ± SD ([1]; CS 400 μM): 37.6 ± 0.3 10^6 cells * days/mL
Average Specific Productivity (pg/cell/day) ± SD ([1]; CS 400 μM): 10.68 ± 0.28 pg/cell/day
Average TRU-016 Produced as a % of Control ± SD ([1]; CS 400 μM): 92.6 ± 3.1%
Average TRU-016 Produced (μg/mL) ± SD ([1]; CS 400 μM): 401.22 ± 13.3 µg/mL
Viability at Harvest (%) ([1]; CS 400 μM): 56.1% and 62.4%
Average ICA (10^6 cells * days/mL) ± SD ([1]; CS 800 μM): 37.6 ± 1.0 10^6 cells * days/mL
Average Specific Productivity (pg/cell/day) ± SD ([1]; CS 800 μM): 10.68 ± 0.40 pg/cell/day
Average TRU-016 Produced as a % of Control ± SD ([1]; CS 800 μM): 92.5 ± 1.0%
Average TRU-016 Produced (μg/mL) ± SD ([1]; CS 800 μM): 401.14 ± 4.1 µg/mL
Viability at Harvest (%) ([1]; CS 800 μM): 58.1% and 59.7%
average specific productivity of the cells ([1]; CS 25-800 μM): no significant effect
overall cell viability or growth (integral cell area) ([1]; CS 25-800 μM): did not appear to significantly affect
decrease in production of TRU-016 relative to control ([1]; CS 25-800 μM, even at the highest concentration of 800 μM): ≤ 7.5%
Average TRU-016 Produced (ug/mL) ± SD ([2]; CS 25 μM): 180.31 ± 6.6 µg/mL
ICA (Integral Cell Area) ([2]; CS 25 μM, listed as CS): 21.4 10^6 cells * days/mL and 21.1 10^6 cells * days/mL
Specific Productivity ([2]; CS 25 μM, listed as CS): 8.22 pg/cell/day and 8.78 pg/cell/day
Average TRU-016 Produced (ug/mL) ± SD ([2]; CS 50 μM): 176.63 ± 1.0 µg/mL
ICA (Integral Cell Area) ([2]; CS 50 μM, listed as CS): 21.6 10^6 cells * days/mL and 21.4 10^6 cells * days/mL
Specific Productivity ([2]; CS 50 μM, listed as CS): 8.15 pg/cell/day and 8.27 pg/cell/day
ICA (Integral Cell Area) ([2]; CS 100 μM): 21.6 10^6 cells * days/mL
Average TRU-016 Produced (ug/mL) ± SD ([2]; CS 100 μM): 161.83 ± 0.1 µg/mL
Specific Productivity ([2]; CS 100 μM, listed as CS): 7.48 pg/cell/day and 7.49 pg/cell/day
Average TRU-016 Produced (ug/mL) ± SD ([2]; CS 200 μM): 143.53 ± 1.4 µg/mL
ICA (Integral Cell Area) ([2]; CS 200 μM, listed as CS): 21.9 10^6 cells * days/mL and 22.0 10^6 cells * days/mL
Specific Productivity ([2]; CS 200 μM, listed as CS): 6.60 pg/cell/day and 6.47 pg/cell/day
Specific Productivity ([2]; CS 400 μM): 5.48 pg/cell/day
Average TRU-016 Produced (ug/mL) ± SD ([2]; CS 400 μM): 124.93 ± 1.4 µg/mL
ICA (Integral Cell Area) ([2]; CS 400 μM, listed as CS): 23.0 10^6 cells * days/mL and 22.4 10^6 cells * days/mL
Specific Productivity ([2]; CS 400 μM, listed as CS): 5.53 pg/cell/day
Average TRU-016 Produced (ug/mL) ± SD ([2]; CS 800 μM): 99.65 ± 6.1 µg/mL
ICA (Integral Cell Area) ([2]; CS 800 μM, listed as CS): 23.9 10^6 cells * days/mL and 23.8 10^6 cells * days/mL
Specific Productivity ([2]; CS 800 μM, listed as CS): 3.99 pg/cell/day and 4.36 pg/cell/day
cell viability and growth (integral cell area) ([2]; CS 25-800 μM): did not appear to be significantly affected
